The values that follow come from ChEMBL document CHEMBL1146957, “An efficient, asymmetric solid-phase synthesis of benzothiadiazine-substituted tetramic acids: potent inhibitors of the hepatitis C virus RNA-dependent RNA polymerase” (Bioorg Med Chem Lett, 2006).

Molecules are shown by their SMILES.

The target of test [1] is RNA-directed RNA polymerase (Hepacivirus hominis, UniProt O39930). Put plainly: Inhibition of HCV NS5B RNA dependent RNA polymerase.
The subject of a further test is Hepatitis C virus. Kind of test: Inhibition of HCV replication. It is filed as functional, organism-based, Hepacivirus hominis.

RNA-directed RNA polymerase, sequence (O39930 whole entry): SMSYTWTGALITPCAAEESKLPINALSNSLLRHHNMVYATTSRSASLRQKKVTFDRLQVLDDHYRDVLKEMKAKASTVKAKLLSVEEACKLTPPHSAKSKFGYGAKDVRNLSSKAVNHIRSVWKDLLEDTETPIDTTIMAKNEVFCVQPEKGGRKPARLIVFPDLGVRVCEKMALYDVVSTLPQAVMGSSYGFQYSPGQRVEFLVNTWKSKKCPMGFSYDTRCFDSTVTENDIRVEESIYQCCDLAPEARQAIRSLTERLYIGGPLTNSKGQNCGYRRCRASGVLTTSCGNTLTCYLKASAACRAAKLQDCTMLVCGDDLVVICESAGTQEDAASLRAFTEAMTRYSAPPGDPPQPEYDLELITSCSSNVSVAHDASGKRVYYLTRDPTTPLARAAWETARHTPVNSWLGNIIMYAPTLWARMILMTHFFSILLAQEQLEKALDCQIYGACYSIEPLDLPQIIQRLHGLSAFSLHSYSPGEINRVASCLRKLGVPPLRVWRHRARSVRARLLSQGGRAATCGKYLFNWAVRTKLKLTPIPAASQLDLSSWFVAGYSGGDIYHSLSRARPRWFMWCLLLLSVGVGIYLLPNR

Take `CC(C)CCn1c(=O)c(C2=NS(=O)(=O)c3ccccc3N2)c(O)c2ccccc21`: the figures for the IC50 (in test [1]; in the test with Hepatitis C virus) were 200 nM and 269000 nM, respectively.
For `CC(C)(C)[C@H]1C(O)=C(C2=NS(=O)(=O)c3ccccc3N2)C(=O)N1Cc1ccccn1`, in test [1], the IC50 is greater than 100000 nM.
The same measure, in the same setting: the figure for `O=C1C(C2=NS(=O)(=O)c3ccccc3N2)=C(O)[C@H](Cc2cccnc2)N1Cc1ccc(F)cc1` is 2470 nM.
The compound `CC(C)(C)[C@H]1C(O)=C(C2=NS(=O)(=O)c3ccccc3N2)C(=O)N1CCC1CC1` yielded an IC50 in test [1] of 530 nM.
Turning to `CC(C)(C)[C@H]1C(O)=C(C2=NS(=O)(=O)c3ccccc3N2)C(=O)N1Cc1ccccc1`, the figures for the IC50 (in test [1]; with Hepatitis C virus) were 22 nM and 13000 nM, respectively.
On the same counts, the results for `CC(C)CCN1C(=O)C(C2=NS(=O)(=O)c3ccccc3N2)=C(O)[C@@H]1C(C)(C)C` are 18 nM and 8000 nM.
For the compound `CC(C)(C)CCN1C(=O)C(C2=NS(=O)(=O)c3ccccc3N2)=C(O)[C@@H]1c1ccc(F)cc1`, the IC50 in test [1] is greater than 748 nM.
In turn, `CC(C)(C)CCN1C(=O)C(C2=NS(=O)(=O)c3ccccc3N2)=C(O)[C@@H]1C(C)(C)C` registered an IC50 in test [1] of 1.7 nM.
As for `CC(C)(C)[C@H]1C(O)=C(C2=NS(=O)(=O)c3ccccc3N2)C(=O)N1Cc1ccc(F)cc1`, the IC50 in test [1] was 59 nM.
Regarding `CC(C)CCN1C(=O)C(C2=NS(=O)(=O)c3ccccc3N2)=C(O)[C@@H]1C(C)C`, the IC50 in test [1] is 147 nM; in the test on Hepatitis C virus, 159000 nM.
Turning to `CC(C)(C)CCN1C(=O)C(C2=NS(=O)(=O)c3ccccc3N2)=C(O)[C@@H]1C1CCCCC1`, in test [1], the IC50 stood at 486 nM.
For `CCC(C)[C@H]1C(O)=C(C2=NS(=O)(=O)c3ccccc3N2)C(=O)N1Cc1ccccc1` (some centres undefined), the IC50 came to 88 nM in test [1] and 37000 nM with Hepatitis C virus.
On to `CC(C)CCN1C(=O)C(C2=NS(=O)(=O)c3ccccc3N2)=C(O)[C@@H]1Cc1ccccc1`, for which the results for the IC50 (in test [1]; in the test on Hepatitis C virus) were 3570 nM and greater than 60000 nM, respectively.

A word on the IC50: it is the concentration that inhibits the measured activity by half.
